Entries after “also recorded” stand apart in the source; their conditions may differ. Like-named read-outs stand apart in the source and are kept apart here.
Columns and labels:
CYP2D6 = CYP2D6 (Homo sapiens, UniProt P10635); assay: Early toxicity: CYP2D6 inhibition; type: in vitro ADME; conditions: Table 4a; for inhibition at 10 µM: human
hERG channel = hERG channel (Homo sapiens, UniProt Q12809); assay: Early toxicity: hERG inhibition; conditions: for inhibition at 10 µM: human
A549 = assay: Early toxicity: A549 cell growth; type: cell-based; conditions: 10 μM; 100% = not cytotoxic, 0% = cytostatic, −100% = cytotoxic
CYP2C9 = CYP2C9 (Homo sapiens, UniProt P11712); assay: Early toxicity: CYP2C9 inhibition; type: in vitro ADME; conditions: mean ± SD, Table 4a; for inhibition at 10 µM: human
[1] = test system: L. infantum (MHOM/MA/67/ITMAP-263) intracellular amastigotes; assay: Anti-parasitic activity against L. infantum intracellular amastigotes (infection with axenic amastigotes luciferase positive); type: cell-based; conditions: Table 1; for inhibition at 10 µM / IC50: Leishmania infantum; for inhibition at 10 µM: read-out: Single Dose Assay 10 μM Mean Inhibitory Activity (%) ± SD; for IC50: read-out: Dose Response Curves IC50 ± SD; for Selectivity Index CC50/IC50 or NOAEL/IC50: THP-1 toxicity / L. infantum IC50
mitochondria = assay: Early toxicity: mitochondrial toxicity; type: cell-based; conditions: for % mitochondrial toxicity: 10 μM, 100% mitotoxic, 0% not mitotoxic; for mitochondrial toxicity: Table 4b
CYP1A2 = target: T1, CYP1A2 (Homo sapiens, UniProt P05177); assay: Early toxicity: CYP1A2 inhibition; type: in vitro ADME; conditions: mean ± SD, Table 4a; for inhibition at 10 µM: human
T1 sequence (P05177 1-516): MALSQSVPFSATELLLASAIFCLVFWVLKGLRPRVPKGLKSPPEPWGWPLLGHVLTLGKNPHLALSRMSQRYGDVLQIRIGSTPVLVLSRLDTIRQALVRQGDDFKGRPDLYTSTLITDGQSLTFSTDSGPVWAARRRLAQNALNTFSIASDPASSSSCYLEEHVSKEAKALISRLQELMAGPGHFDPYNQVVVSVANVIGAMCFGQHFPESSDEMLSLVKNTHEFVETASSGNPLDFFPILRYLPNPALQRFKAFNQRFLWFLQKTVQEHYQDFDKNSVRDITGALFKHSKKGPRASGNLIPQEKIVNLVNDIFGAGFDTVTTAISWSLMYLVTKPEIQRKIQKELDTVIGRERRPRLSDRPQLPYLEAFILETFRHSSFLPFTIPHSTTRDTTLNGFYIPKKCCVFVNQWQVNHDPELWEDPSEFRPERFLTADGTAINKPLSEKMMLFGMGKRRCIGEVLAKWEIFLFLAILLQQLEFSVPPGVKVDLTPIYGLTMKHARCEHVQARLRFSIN

CYP3A4 = CYP3A4 (Homo sapiens, UniProt P08684); assay: Early toxicity: CYP3A4 inhibition; type: in vitro ADME; conditions: Table 4a; for inhibition at 10 µM: human, read-out: % inhibition CYP3A4
[2] = test system: PMA-differentiated THP-1 cells; assay: Toxicity MTT assay in PMA-differentiated THP-1 cells; type: cell-based, human; conditions: for CC50: read-out: Toxicity CC50 ± SD or NOAEL
Excerpt: (§1) The in vitro antiparasitic activity against L. infantum (MHOM/MA/67/ITMAP-263) and the toxicity against THP-1 macrophages is presented in Table 1.

[3] = as above; type: cell-based, human; conditions: human, PMA-differentiated THP-1 cells (macrophages); for CC50: THP-1 macrophages, Table 1, read-out: Toxicity CC50 ± SD or NOAEL; for IC50: Table 4b, read-out: Cytotoxicity THP-1 (IC50)
Excerpt: as §1

[4] = Snapshot pharmacokinetics in plasma after oral gavage; type: in vivo, mice; conditions: mouse, plasma, po, healthy BALB/c mice, 20 mg/kg gavage, Table 13
Protocol: Pharmacology of 5-cyclopentadecylpentyl (2-(trimethylammonio)ethyl) phosphate (19) in mice.
Blood samples were collected from the tail vein at 0, 0.5, 0.75, 1, 3, 24 and 72 hours into heparinized tubes. Moreover, biodistribution of the molecule, 72h after administration, was determined in several organs of the treated mice, namely brain, liver, spleen, kidney, heart and bone marrow. […] J Chromatogr B, 865: 55-62) by liquid chromatography mass spectrometry (LC-MS/MS).

[5] = test system: T. b. brucei L427 WT Blood-Stream Form; assay: Anti-parasitic activity against T. b. brucei blood-stream form (resazurin 72 h assay); type: cell-based; conditions: Table 2; for inhibition at 10 µM: Trypanosoma brucei, read-out: Single Dose Assay 10 μM Mean Inhibitory Activity (%) ± SD
CYP2C19 = CYP2C19 (Homo sapiens, UniProt P33261); assay: Early toxicity: CYP2C19 inhibition; type: in vitro ADME; conditions: Table 4a; for inhibition at 10 µM: human
T. b. brucei GVR35 = assay: Stage II HAT mice model, live imaging; type: in vivo
W1-38 = assay: Early toxicity: W1-38 cell growth; type: cell-based; conditions: 10 μM

CYP2C9, sequence (P11712 whole entry): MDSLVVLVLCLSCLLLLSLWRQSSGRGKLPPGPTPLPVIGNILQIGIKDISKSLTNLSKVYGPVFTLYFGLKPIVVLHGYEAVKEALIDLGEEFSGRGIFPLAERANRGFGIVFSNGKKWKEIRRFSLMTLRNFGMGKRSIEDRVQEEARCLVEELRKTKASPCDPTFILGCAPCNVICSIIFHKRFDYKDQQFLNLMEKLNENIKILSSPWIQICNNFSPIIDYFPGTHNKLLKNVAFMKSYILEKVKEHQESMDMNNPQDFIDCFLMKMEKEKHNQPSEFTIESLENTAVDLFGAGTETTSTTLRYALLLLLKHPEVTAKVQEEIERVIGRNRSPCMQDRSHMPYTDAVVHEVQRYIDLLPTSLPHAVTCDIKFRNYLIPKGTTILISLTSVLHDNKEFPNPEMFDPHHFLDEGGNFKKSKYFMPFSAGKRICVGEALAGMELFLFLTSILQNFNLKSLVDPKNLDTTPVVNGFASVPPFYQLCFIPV
hERG channel, sequence (Q12809 whole entry): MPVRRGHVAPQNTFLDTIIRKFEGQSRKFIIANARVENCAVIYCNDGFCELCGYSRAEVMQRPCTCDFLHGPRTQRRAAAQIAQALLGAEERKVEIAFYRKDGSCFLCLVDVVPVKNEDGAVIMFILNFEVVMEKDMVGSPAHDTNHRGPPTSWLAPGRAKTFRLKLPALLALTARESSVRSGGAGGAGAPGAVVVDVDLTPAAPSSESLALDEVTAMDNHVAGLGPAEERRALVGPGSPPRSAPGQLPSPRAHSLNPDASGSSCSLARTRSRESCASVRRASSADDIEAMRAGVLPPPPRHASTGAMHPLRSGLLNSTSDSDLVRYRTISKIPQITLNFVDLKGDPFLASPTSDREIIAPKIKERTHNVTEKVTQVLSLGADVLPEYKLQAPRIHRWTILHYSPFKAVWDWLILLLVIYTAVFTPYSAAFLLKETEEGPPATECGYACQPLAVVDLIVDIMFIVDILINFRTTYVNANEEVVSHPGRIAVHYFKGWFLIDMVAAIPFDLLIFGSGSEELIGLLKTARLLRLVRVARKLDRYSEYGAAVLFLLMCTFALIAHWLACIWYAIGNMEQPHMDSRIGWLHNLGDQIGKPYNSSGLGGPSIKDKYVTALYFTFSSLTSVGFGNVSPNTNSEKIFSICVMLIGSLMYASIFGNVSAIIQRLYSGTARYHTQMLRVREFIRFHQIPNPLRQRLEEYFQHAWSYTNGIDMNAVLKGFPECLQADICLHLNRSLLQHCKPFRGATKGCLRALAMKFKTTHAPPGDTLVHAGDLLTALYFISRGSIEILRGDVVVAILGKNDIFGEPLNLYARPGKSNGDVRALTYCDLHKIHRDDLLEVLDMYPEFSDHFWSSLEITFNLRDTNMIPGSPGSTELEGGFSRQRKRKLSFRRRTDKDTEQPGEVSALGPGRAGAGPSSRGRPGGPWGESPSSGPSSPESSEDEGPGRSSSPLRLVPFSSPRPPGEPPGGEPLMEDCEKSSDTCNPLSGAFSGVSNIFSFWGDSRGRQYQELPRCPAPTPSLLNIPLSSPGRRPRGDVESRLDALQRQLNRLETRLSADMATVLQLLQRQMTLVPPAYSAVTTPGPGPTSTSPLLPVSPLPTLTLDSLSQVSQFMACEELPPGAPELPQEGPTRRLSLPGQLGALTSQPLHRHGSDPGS
CYP2C19, sequence (P33261 whole entry): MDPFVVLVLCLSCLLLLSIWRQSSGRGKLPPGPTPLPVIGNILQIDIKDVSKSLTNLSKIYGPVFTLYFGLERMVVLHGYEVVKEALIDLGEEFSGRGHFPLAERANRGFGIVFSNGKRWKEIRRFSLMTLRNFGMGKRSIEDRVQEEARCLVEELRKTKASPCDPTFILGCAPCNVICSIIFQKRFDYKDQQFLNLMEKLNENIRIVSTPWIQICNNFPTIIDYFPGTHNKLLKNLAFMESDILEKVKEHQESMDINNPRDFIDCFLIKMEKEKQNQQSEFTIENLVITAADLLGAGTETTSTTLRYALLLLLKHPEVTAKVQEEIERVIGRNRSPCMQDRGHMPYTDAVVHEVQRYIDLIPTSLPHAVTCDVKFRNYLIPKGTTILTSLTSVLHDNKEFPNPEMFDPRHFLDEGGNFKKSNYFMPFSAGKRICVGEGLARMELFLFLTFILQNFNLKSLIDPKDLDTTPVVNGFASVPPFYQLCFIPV
CYP2D6, sequence (P10635 whole entry): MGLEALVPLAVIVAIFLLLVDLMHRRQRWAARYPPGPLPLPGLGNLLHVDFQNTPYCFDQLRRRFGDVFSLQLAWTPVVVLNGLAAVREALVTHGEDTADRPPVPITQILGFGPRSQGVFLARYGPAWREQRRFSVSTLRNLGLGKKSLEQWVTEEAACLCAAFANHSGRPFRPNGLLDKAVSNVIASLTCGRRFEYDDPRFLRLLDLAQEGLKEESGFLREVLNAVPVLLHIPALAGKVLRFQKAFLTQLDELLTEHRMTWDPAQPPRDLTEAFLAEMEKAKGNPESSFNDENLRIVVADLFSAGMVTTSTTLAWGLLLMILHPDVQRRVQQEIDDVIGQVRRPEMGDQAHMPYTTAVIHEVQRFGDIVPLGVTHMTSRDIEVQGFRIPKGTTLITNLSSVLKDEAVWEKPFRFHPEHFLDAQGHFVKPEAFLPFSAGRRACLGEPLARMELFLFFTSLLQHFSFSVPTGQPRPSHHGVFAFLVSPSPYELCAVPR
CYP3A4, sequence (P08684 whole entry): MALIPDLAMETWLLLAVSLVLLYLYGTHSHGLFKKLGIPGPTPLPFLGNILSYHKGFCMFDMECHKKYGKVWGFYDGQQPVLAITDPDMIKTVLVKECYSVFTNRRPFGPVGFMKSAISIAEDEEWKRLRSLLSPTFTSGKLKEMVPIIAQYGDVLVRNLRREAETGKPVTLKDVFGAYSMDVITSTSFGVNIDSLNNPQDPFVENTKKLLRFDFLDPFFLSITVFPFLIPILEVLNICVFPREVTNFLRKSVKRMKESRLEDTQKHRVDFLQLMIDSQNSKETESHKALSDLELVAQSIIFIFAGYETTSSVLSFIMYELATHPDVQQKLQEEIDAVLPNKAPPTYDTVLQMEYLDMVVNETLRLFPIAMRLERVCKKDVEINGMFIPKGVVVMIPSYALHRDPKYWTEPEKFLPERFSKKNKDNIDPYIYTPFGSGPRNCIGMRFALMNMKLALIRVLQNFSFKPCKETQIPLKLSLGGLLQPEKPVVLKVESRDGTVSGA

Row | SMILES | inhibition at 10 µM (CYP2D6; mean ± SD) | Flag for Interference, hERG (hERG channel; Table 4b) | inhibition at 10 µM (hERG channel) | % cell growth A549 (A549) | inhibition at 10 µM (CYP2C9) | inhibition at 10 µM ([1]; 10 μM) | IC50 [1] | Selectivity Index CC50/IC50 or NOAEL/IC50 [1] | % mitochondrial toxicity (mitochondria) | mitochondrial toxicity (mitochondria) | inhibition at 10 µM (CYP1A2) | inhibition at 10 µM (CYP3A4; 10 μM, mean ± SD) | CC50 ([2]; Table 2) | CC50 [3] | IC50 [3] | inhibition at 10 µM ([5]; 10 μM) | inhibition at 10 µM (CYP2C19; mean ± SD) | other results
1 | C[N+](C)(C)CCOP(=O)([O-])OCCCCCC1CCCCCCCCCCC1 [Compound 17, 5-cyclododecylpentyl (2-(trimethylammonio)ethyl) phosphate] | 48.9 ± 2.97% | (no) | 26.3 ± 12.9% | 121.61 ± 8.94% | 10.3 ± 6.3% | 96 ± 2% | 0.6 ± 0.2 µM | >166 | 110.46 ± 13.08% | exhibit mitochondrial toxicity | 18.9 ± 0.69% | 55.3 ± 4.28% | > 100 µM | > 100 µM | > 100 µM | 21 ± 15% | 35.9 ± 4.97% | CYP2D6 interaction / inhibition (CYP2D6; 10 μM): interact; also recorded: significant inhibition; CYP3A4 interaction (CYP3A4): interact; AUC(0-inf) ([4]; read-out: AUC (0-∞)): 11300 ng·h/mL; AUC(0-inf) ([4]; read-out: AUC (0-∞) (μM h/mL)): 26.9 µM·h; Cmax ([4]; read-out: Cmax): 4.88 µM; Cmax ([4]; read-out: Cmax (μg/mL)): 2.05 µg/mL; Tmax ([4]; read-out: tmax): 3 h; half-life ([4]; read-out: t½ (converted)): 6.9 h; activity against T. b. brucei blood-stream form [5]: unexpectedly high activity in the low micromolar range; CYP2C19 interaction / inhibition (CYP2C19; 10 μM): interact; also recorded: significant inhibition
2 | Nc1nc(N)nc(Nc2ccc([As]3SCC(CO)S3)cc2)n1 (centres unmarked) [melarsoprol, reference compound] | – | – | – | – | – | – | – | – | – | – | – | – | – | – | – | – | – | infection outcome (words) (T. b. brucei GVR35; 10 mg/kg/day IP, 7 days of treatment): able to clear the infection
3 | C[N+](C)(C)CCCOP(=O)([O-])OCCCCC=C1CCCCCCCCCCCCCC1 [Compound 15, 5-cyclopentadecylidenepentyl (3-(trimethylammonio)propyl) phosphate] | 32.4 ± 2.88% | (no) | 15.5 ± 4.66% | 112.20 ± 6.11% | 15.6 ± 6.17% | 49 ± 1% | – | – | 1.08 ± 12.57% | – | 9.44 ± 2.84% | 23.4 ± 1.94% | > 100 µM | > 100 µM | > 100 µM | 14 ± 5% | 42 ± 7.27% | % cell growth W1-38 (W1-38): 124.02 ± 7.42%
4 | C[N+](C)(C)CCOP(=O)([O-])OCCC1CCCCCCCCCCCCCC1 [Compound 28, 2-cyclopentadecylethyl (2-(trimethylammonio)ethyl) phosphate] | 37.7 ± 3.27% | (no) | 39 ± 5.84% | 120.79 ± 0.63% | 9.6 ± 4.6% | 70 ± 7% | 1.12 ± 0.45 µM | >90 | 119.09 ± 14.82% | exhibit mitochondrial toxicity | 15.6 ± 2.12% | 27.8 ± 1.95% | – | > 100 µM | > 100 µM | – | 21.3 ± 3.7% | –
5 | C[N+](C)(C)CCOP(=O)([O-])OCCCCC1CCCCCCCCCCC1 [Compound 16, 4-cyclododecylbutyl (2-(trimethylammonio)ethyl) phosphate] | – | – | – | – | – | 87 ± 17% | 0.86 ± 0.33 µM | >116 | – | – | – | – | > 100 µM | > 100 µM | – | – | – | –
6 | C[N+](C)(C)CCOP(=O)([O-])OCCC1CCCCCCCCCCC1 [Compound 27, 2-cyclododecylethyl (2-(trimethylammonio)ethyl) phosphate] | 6.92 ± 4.21% | (no) | -4.11 ± 10.4% | 126.46 ± 6.12% | 13.7 ± 6.52% | 36 ± 5% | – | – | 113.87 ± 2.81% | – | 22.2 ± 1.59% | 24.8 ± 3.15% | – | > 100 µM | > 100 µM | – | 11 ± 5.72% | –
7 | C[N+](C)(C)CCOP(=O)([O-])OCCCC=C1CCCCCCCCCCC1 [Compound 11, 4-cyclododecylidenebutyl (2-(trimethylammonio)ethyl) phosphate] | – | – | – | – | – | 76 ± 22% | 2.59 ± 0.94 µM | >38.6 | – | – | – | – | > 100 µM | > 100 µM | – | – | – | –
8 | N=C(N)c1ccc(OCCCCCOc2ccc(C(=N)N)cc2)cc1 [pentamidine, reference compound] | – | – | – | – | – | – | – | – | – | – | – | – | – | – | – | – | – | infection in the brain (T. b. brucei GVR35; 5 mg/kg/day IP): not able to clear infection in the brain
9 | C[N+](C)(C)CCCOP(=O)([O-])OCCCCCC1CCCCCCCCCCCCCC1 [Compound 20, 5-cyclonentadecyloentyl (3-(trimethylammonio)propyl) phosohate] | – | (no) | – | 104.50 ± 4.67% | – | – | – | – | −3.82 ± 5.49% | – | – | – | > 100 µM | – | – | – | – | % inhibition CYP2D6 (CYP2D6; 10 μM, mean ± SD): 44.01 ± 3.51%; % cell growth W1-38 (W1-38): 98.77 ± 10.61%; % inhibition hERG (hERG channel; 10 μM, Table 4b): 4.56 ± 15.55%; % inhibition CYP2C9 (CYP2C9; 10 μM): 15.44 ± 0.53%; Single Dose Assay 10 μM Mean Inhibitory Activity (%) ± SD ([1]; 10 μM): 53 ± 6%; % inhibition CYP1A2 (CYP1A2; 10 μM): 10.14 ± 3.87%; % inhibition CYP3A4 (CYP3A4; 10 μM, mean ± SD): 22.83 ± 5.05%; CC50 ([2]; THP-1 macrophages, Table 1): > 100 µM; IC50 ([2]; Table 4b, read-out: Cytotoxicity THP-1 (IC50)): > 100 µM; Single Dose Assay 10 μM Mean Inhibitory Activity (%) ± SD ([5]; 10 μM): 24 ± 10%; % inhibition CYP2C19 (CYP2C19; 10 μM, mean ± SD): 52.28 ± 5.17%
10 | C[N+](C)(C)CCOP(=O)([O-])OCCCCC=C1CCCCCCCCCCC1 [Compound 12, 5-cyclododecylidenepentyl (2-(trimethylammonio)ethyl) phosphate] | 15.1 ± 2.98% | (no) | -2.04 ± 7.61% | 130.21 ± 5.63% | 1.76 ± 1.59% | 95 ± 2% | 0.9 ± 0.7 µM | >111 | 113.57 ± 12.08% | exhibit mitochondrial toxicity | 10.2 ± 5.03% | 35.7 ± 6.01% | > 100 µM | > 100 µM | > 100 µM | 8 ± 8% | 11.2 ± 5.4% | –

Reference: US20230365602A1, “COMPOUND FOR USE IN THE TREATMENT OF PROTOZOAL DISEASES AND PROCESS FOR PRODUCTION OF SAID COMPOUND” (QUADREL S.R.L., priority 2020, published 2023)
